Source: PubChem BioAssay AID248 (DTP/NCI, 2004)
Several values for one entry are separate records, joined by “and”; a condition that tells them apart may be missing. Equal values may be shown once. Toxic doses and inconclusive results are not listed. Rule as the data show it: active = T/C of 150% or more; inactive = T/C below 125%.

System: L1210 leukemia ip in BDF1 mice, survival T/C
Experiment: NCI In Vivo Anticancer Drug Screen. Data for tumor model L1210 Leukemia (intraperitoneal) in B6D2F1 (BDF1) mice
Conditions: endpoint: mean survival time, higher = longer survival
Summary of the method: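 Tumor cells were implanted, animals were treated, and survival was followed. The result divides the treated measurement by the vehicle-control measurement.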

[1] = dose: 100.0 mg/kg/injection, schedule: Q04DX002 (ip), vehicle: saline with Tween-80
[2] = dose: 200.0 mg/kg/injection, schedule: Q04DX002 (ip), vehicle: saline with Tween-80
[3] = dose: 400.0 mg/kg/injection, schedule: Q04DX002 (ip), vehicle: saline with Tween-80
[4] = dose: 100.0 mg/kg/injection, schedule: Q01DX001 (ip), vehicle: saline
[5] = dose: 200.0 mg/kg/injection, schedule: Q01DX001 (ip), vehicle: saline
[6] = dose: 100.0 mg/kg/injection, schedule: Q04DX003 (ip), vehicle: Klucel (hydroxypropylcellulose) (HPC)
[7] = dose: 200.0 mg/kg/injection, schedule: Q04DX003 (ip), vehicle: Klucel (hydroxypropylcellulose) (HPC)
[8] = dose: 400.0 mg/kg/injection, schedule: Q04DX003 (ip), vehicle: Klucel (hydroxypropylcellulose) (HPC)
[9] = dose: 100.0 mg/kg/injection, schedule: Q01DX009 (ip), vehicle: Klucel (hydroxypropylcellulose) (HPC)
[10] = dose: 200.0 mg/kg/injection, schedule: Q01DX009 (ip), vehicle: Klucel (hydroxypropylcellulose) (HPC)
[11] = dose: 400.0 mg/kg/injection, schedule: Q01DX009 (ip), vehicle: Klucel (hydroxypropylcellulose) (HPC)
[12] = dose: 100.0 mg/kg/injection, schedule: Q04DX003 (ip), vehicle: saline

Measured: T/C

COC(=O)C12C3C=CC(O3)C1(C(=O)OC)C1C=CC2O1 (stereo not drawn)
inactive: dose: 87.5 mg/kg/injection, schedule: Q01DX009 (ip), vehicle: Klucel (hydroxypropylcellulose) (HPC) 100 % of control | dose: 175.0 mg/kg/injection, schedule: Q01DX009 (ip), vehicle: Klucel (hydroxypropylcellulose) (HPC) 97 % of control | dose: 350.0 mg/kg/injection, schedule: Q01DX009 (ip), vehicle: Klucel (hydroxypropylcellulose) (HPC) 101 % of control

CCOC(=O)CN1C(=O)Cc2ccccc21
inactive: dose: 75.0 mg/kg/injection, schedule: Q04DX002 (ip), vehicle: saline with Tween-80 101 % of control | dose: 150.0 mg/kg/injection, schedule: Q04DX002 (ip), vehicle: saline with Tween-80 108 % of control | dose: 300.0 mg/kg/injection, schedule: Q04DX002 (ip), vehicle: saline with Tween-80 104 % of control

CCCN(CCC)S(=O)(=O)CC
inactive: [1] 99 % of control | [2] 92 % of control | [3] 99 % of control

Cc1cc(N(C)C)cc(C)c1C(=Nc1ccc(N=C(NO)c2c(C)cc(N(C)C)cc2C)cc1)NO
inactive: [4] 97 % of control | [5] 109 % of control

O=[N+]([O-])c1ccc(N/N=C/c2ccccc2)cc1
inactive: dose: 15.0 mg/kg/injection, schedule: Q01DX Z (ip), vehicle: carboxymethylcellulose (CMC) 91 % of control | dose: 30.0 mg/kg/injection, schedule: Q01DX Z (ip), vehicle: carboxymethylcellulose (CMC) 100 % of control | dose: 60.0 mg/kg/injection, schedule: Q01DX Z (ip), vehicle: carboxymethylcellulose (CMC) 94 % of control and 100 % of control | dose: 120.0 mg/kg/injection, schedule: Q01DX Z (ip), vehicle: carboxymethylcellulose (CMC) 94 % of control and 97 % of control | dose: 240.0 mg/kg/injection, schedule: Q01DX Z (ip), vehicle: carboxymethylcellulose (CMC) 97 % of control | dose: 480.0 mg/kg/injection, schedule: Q01DX Z (ip), vehicle: carboxymethylcellulose (CMC) 100 % of control

FC1=C(F)C2(F)C3CCC(O3)C2(F)C(Br)=C1F (stereo not drawn)
inactive: dose: 100.0 mg/kg/injection, schedule: Q01DX001 (ip), vehicle: Klucel (hydroxypropylcellulose) (HPC) 99 % of control | [6] 101 % of control | dose: 200.0 mg/kg/injection, schedule: Q01DX001 (ip), vehicle: Klucel (hydroxypropylcellulose) (HPC) 91 % of control | [7] 101 % of control | dose: 400.0 mg/kg/injection, schedule: Q01DX001 (ip), vehicle: Klucel (hydroxypropylcellulose) (HPC) 100 % of control | [8] 98 % of control

S=P(/C=C/c1ccccc1)(c1ccccc1)c1ccccc1
inactive: [9] 97 % of control | [6] 95 % of control | [10] 92 % of control | [7] 92 % of control | [8] 92 % of control

O=C1c2ccc([N+](=O)[O-])cc2-n2cccc21
inactive: [6] 95 % of control | [7] 104 % of control | [8] 98 % of control

O=C(Nc1ccc(Cl)cc1[N+](=O)[O-])Oc1ccc(C(=O)OCc2ccccc2)cc1
inactive: [9] 101 % of control | [10] 103 % of control | [11] 110 % of control

O=C1CC(N2C(=O)C3CCCCC3C2=O)C(=O)N1 (stereo not drawn)
inactive: [12] 97 % of control | dose: 200.0 mg/kg/injection, schedule: Q04DX003 (ip), vehicle: saline 101 % of control | dose: 400.0 mg/kg/injection, schedule: Q04DX003 (ip), vehicle: saline 97 % of control

CNC(=O)Nc1ccc(C)cc1
inactive: dose: 100.0 mg/kg/injection, schedule: Q01DX001 (ip), vehicle: carboxymethylcellulose (CMC) 108 % of control | dose: 200.0 mg/kg/injection, schedule: Q01DX001 (ip), vehicle: carboxymethylcellulose (CMC) 111 % of control | dose: 400.0 mg/kg/injection, schedule: Q01DX001 (ip), vehicle: carboxymethylcellulose (CMC) 111 % of control

COC(=S)S
inactive: [4] 108 % of control | [5] 108 % of control | dose: 400.0 mg/kg/injection, schedule: Q01DX001 (ip), vehicle: saline 105 % of control

O/N=C/c1ccco1
inactive: [1] 100 % of control | [2] 103 % of control | [3] 103 % of control

COC(=N)Cc1ccc(F)cc1
inactive: dose: 75.0 mg/kg/injection, schedule: Q01DX009 (ip), vehicle: saline with Tween-80 111 % of control | dose: 150.0 mg/kg/injection, schedule: Q01DX009 (ip), vehicle: saline with Tween-80 112 % of control | dose: 300.0 mg/kg/injection, schedule: Q01DX009 (ip), vehicle: saline with Tween-80 112 % of control

CCC(C)OC(=O)Nc1cccc(O)c1 (stereo not drawn)
inactive: dose: 100.0 mg/kg/injection, schedule: Q01DX009 (ip), vehicle: saline with Tween-80 91 % of control | dose: 200.0 mg/kg/injection, schedule: Q01DX009 (ip), vehicle: saline with Tween-80 89 % of control | dose: 400.0 mg/kg/injection, schedule: Q01DX009 (ip), vehicle: saline with Tween-80 90 % of control

O=C(O)C1CC(Br)C(Br)CC1C(=O)Nc1cccc2ccccc12 (stereo not drawn)
inactive: dose: 100.0 mg/kg/injection, schedule: Q04DX002 (ip), vehicle: Klucel (hydroxypropylcellulose) (HPC) 100 % of control | dose: 200.0 mg/kg/injection, schedule: Q04DX002 (ip), vehicle: Klucel (hydroxypropylcellulose) (HPC) 92 % of control | dose: 400.0 mg/kg/injection, schedule: Q04DX002 (ip), vehicle: Klucel (hydroxypropylcellulose) (HPC) 95 % of control

C#[C][Sn]([CH2]CCC)([CH2]CCC)[CH2]CCC
inactive: dose: 0.39 mg/kg/injection, schedule: Q01DX009 (ip), vehicle: saline with Tween-80 109 % of control | dose: 0.78 mg/kg/injection, schedule: Q01DX009 (ip), vehicle: saline with Tween-80 94 % of control | dose: 1.56 mg/kg/injection, schedule: Q01DX009 (ip), vehicle: saline with Tween-80 95 % of control and 98 % of control

COc1ccccc1C1OCC(C)(C)CO1
inactive: [9] 90 % of control | [6] 109 % of control | [10] 95 % of control | [7] 103 % of control | [11] 92 % of control | [8] 108 % of control

CC1(C)OC2C3COc4nc5c(N)ncnc5n4C(O3)C2O1 (stereo not drawn)
inactive: dose: 100.0 mg/kg/injection, schedule: Q01DX001 (ip), vehicle: steriod suspending solution 112 % of control | dose: 200.0 mg/kg/injection, schedule: Q01DX001 (ip), vehicle: steriod suspending solution 101 % of control | dose: 400.0 mg/kg/injection, schedule: Q01DX001 (ip), vehicle: steriod suspending solution 98 % of control

COc1cc(OC)cc(C(O)C(C)NC(C)C)c1 (stereo not drawn)
inactive: dose: 6.25 mg/kg/injection, schedule: Q01DX009 (ip), vehicle: Klucel (hydroxypropylcellulose) (HPC) 95 % of control | dose: 12.5 mg/kg/injection, schedule: Q01DX009 (ip), vehicle: Klucel (hydroxypropylcellulose) (HPC) 92 % of control | dose: 12.5 mg/kg/injection, schedule: Q04DX003 (ip), vehicle: saline 108 % of control | dose: 25.0 mg/kg/injection, schedule: Q01DX009 (ip), vehicle: Klucel (hydroxypropylcellulose) (HPC) 92 % of control | dose: 25.0 mg/kg/injection, schedule: Q04DX003 (ip), vehicle: saline 97 % of control | dose: 50.0 mg/kg/injection, schedule: Q01DX009 (ip), vehicle: Klucel (hydroxypropylcellulose) (HPC) 95 % of control | dose: 50.0 mg/kg/injection, schedule: Q04DX003 (ip), vehicle: saline 105 % of control | [9] 101 % of control | [12] 103 % of control

C/C(=C\Cl)CO
inactive: dose: 100.0 mg/kg/injection, schedule: Q04DX003 (ip), vehicle: saline with Tween-80 97 % of control | dose: 200.0 mg/kg/injection, schedule: Q04DX003 (ip), vehicle: saline with Tween-80 95 % of control
